This is an account of results in patent publication US20230406885A1, “CYCLIC PEPTIDES FOR TRAPPING INTERLEUKIN-1 BETA” (MERCK SHARP & DOHME LLC, priority 2022, published 2023).

The target in this experiment is T1, Recombinant human IL-1β (Homo sapiens, UniProt P01584).
T1 construct: purchased BioLegend 579404
The experiment in a line: IL-6 assay in MRC5 cells: inhibition of IL-1β induced IL-6 secretion (AlphaLISA). Type of experiment: cell-based. The conditions noted are these: inhibition of IL-1β induced IL-6 secretion in MRC5 cells; IL-1β pre-incubated 1 hour with compound; read-out: MRC5 IC50. In a few lines:
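IL-1β at 2×EC80 in seeding medium (EMEM, 0.025% BSA) preincubated 1 h at ambient temperature with compound, then 3000 MRC5 cells/well added and incubated overnight at 37 °C, 5% CO2. IL-6 in conditioned medium quantified by AlphaLISA; IC50 from 4-parameter logistic fit.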

Where a SMILES comes first, the peptide text is derived from it. [ ]: non-standard residue; d: D form. Trp(4-Cl)(βS-Me) = C[C@@H](c1c[nH]c2cccc(Cl)c12)[C@H](N)C(=O)O; Bip(4'-COOH) = N[C@@H](Cc1ccc(-c2ccc(C(=O)O)cc2)cc1)C(=O)O; 1Nal(3S-Me) = C[C@@H](c1cccc2ccccc12)[C@H](N)C(=O)O; Ala(pyrimidin-5-yl) = N[C@@H](Cc1cncnc1)C(=O)O; Phe(4-COOH) = N[C@@H](Cc1ccc(C(=O)O)cc1)C(=O)O; Trp(7-aza) = N[C@@H](Cc1c[nH]c2ncccc12)C(=O)O; h3Pal(5-CN) = N#Cc1cncc(CC[C@H](N)C(=O)O)c1; Pro(4R-NH2) = N[C@H]1CN[C@H](C(=O)O)C1; 1Nal = N[C@@H](Cc1cccc2ccccc12)C(=O)O; hTyr = N[C@@H](CCc1ccc(O)cc1)C(=O)O; 3Pal = N[C@@H](Cc1cccnc1)C(=O)O; 4Pal = N[C@@H](Cc1ccncc1)C(=O)O; dDab = NCC[C@@H](N)C(=O)O; Orn = NCCC[C@H](N)C(=O)O; dNMeA = CN[C@H](C)C(=O)O; Dap = NC[C@H](N)C(=O)O; Aib = CC(C)(N)C(=O)O

T1 sequence (P01584 117-269): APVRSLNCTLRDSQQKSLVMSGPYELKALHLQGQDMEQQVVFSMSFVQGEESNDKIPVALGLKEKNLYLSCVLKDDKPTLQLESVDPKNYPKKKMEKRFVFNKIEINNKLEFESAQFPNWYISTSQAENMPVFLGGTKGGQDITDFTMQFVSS

Take `C[C@@H]1C(=O)NCC(=O)N[C@@H](Cc2ccc(-c3ccc(C(=O)O)cc3)cc2)C(=O)N[C@@H](Cc2cncnc2)C(=O)N[C@@H](CN)C(=O)N[C@H](C)C(=O)N[C@@H](CCc2cncc(C#N)c2)C(=O)N[C@@H](Cc2ccc(-c3ccc(C(=O)O)cc3)cc2)C(=O)N[C@@H](Cc2c[nH]c3ccccc23)C(=O)N[C@@H](Cc2ccc(C(=O)O)cc2)C(=O)NCC(=O)N2C[C@H](N)C[C@H]2C(=O)N[C@@H]([C@@H](C)c2cccc3ccccc23)C(=O)N[C@@H](CC(=O)O)C(=O)N1C` [Example 27] (cyclo([Bip(4'-COOH)]W[Phe(4-COOH)]G[Pro(4R-NH2)][1Nal(3S-Me)]D[dNMeA]G[Bip(4'-COOH)][Ala(pyrimidin-5-yl)][Dap][dA][h3Pal(5-CN)])): the IC50 – broadly, the concentration needed to halve the response being measured – came out at 0.017 nM.
To `C[C@@H]1C(=O)NCC(=O)N[C@@H](Cc2ccc(-c3ccc(C(=O)O)cc3)cc2)C(=O)N[C@@H](Cc2cncnc2)C(=O)N[C@@H](CN)C(=O)N[C@H](C)C(=O)N[C@@H](CCc2ccc(O)cc2)C(=O)N[C@@H](Cc2ccc(-c3ccc(C(=O)O)cc3)cc2)C(=O)N[C@@H](Cc2c[nH]c3ccccc23)C(=O)N[C@@H](Cc2ccc(C(=O)O)cc2)C(=O)NCC(=O)N2C[C@H](N)C[C@H]2C(=O)N[C@@H]([C@@H](C)c2cccc3ccccc23)C(=O)N[C@@H](CC(=O)O)C(=O)N1C` [Example 28] (cyclo([Bip(4'-COOH)]W[Phe(4-COOH)]G[Pro(4R-NH2)][1Nal(3S-Me)]D[dNMeA]G[Bip(4'-COOH)][Ala(pyrimidin-5-yl)][Dap][dA][hTyr])) belongs 0.0393 nM; to `C[C@@H]1C(=O)NCC(=O)N[C@@H](Cc2ccc(-c3ccc(C(=O)O)cc3)cc2)C(=O)N[C@@H](Cc2c[nH]c3ncccc23)C(=O)N[C@@H](CN)C(=O)N[C@H](C)C(=O)N[C@@H](CCc2ccc(O)cc2)C(=O)N[C@@H](Cc2ccc(-c3ccc(C(=O)O)cc3)cc2)C(=O)N[C@@H](Cc2c[nH]c3ccccc23)C(=O)N[C@@H](Cc2ccc(C(=O)O)cc2)C(=O)NCC(=O)N2C[C@H](N)C[C@H]2C(=O)N[C@@H]([C@@H](C)c2cccc3ccccc23)C(=O)N[C@@H](CC(=O)O)C(=O)N1C` [Example 29] (cyclo([Bip(4'-COOH)]W[Phe(4-COOH)]G[Pro(4R-NH2)][1Nal(3S-Me)]D[dNMeA]G[Bip(4'-COOH)][Trp(7-aza)][Dap][dA][hTyr])), 0.0205 nM.
To `C[C@@H]1C(=O)NCC(=O)N[C@@H](Cc2ccc(-c3ccc(C(=O)O)cc3)cc2)C(=O)N[C@@H](Cc2c[nH]c3ccccc23)C(=O)N[C@@H](CN)C(=O)N[C@H](C)C(=O)N[C@@H](CCc2cncc(C#N)c2)C(=O)N[C@@H](Cc2ccc(-c3ccc(C(=O)O)cc3)cc2)C(=O)N[C@@H](Cc2c[nH]c3ccccc23)C(=O)N[C@@H](Cc2ccc(C(=O)O)cc2)C(=O)NCC(=O)N2C[C@H](N)C[C@H]2C(=O)N[C@@H]([C@@H](C)c2cccc3ccccc23)C(=O)N[C@@H](CC(=O)O)C(=O)N1C` [Example 30] (cyclo([Bip(4'-COOH)]W[Phe(4-COOH)]G[Pro(4R-NH2)][1Nal(3S-Me)]D[dNMeA]G[Bip(4'-COOH)]W[Dap][dA][h3Pal(5-CN)])) belongs 0.0185 nM; to `C[C@@H]1C(=O)NCC(=O)N[C@@H](Cc2ccc(-c3ccc(C(=O)O)cc3)cc2)C(=O)N[C@@H](Cc2c[nH]c3ccccc23)C(=O)N[C@@H](CN)C(=O)N[C@H](C)C(=O)N[C@@H](CCc2ccc(O)cc2)C(=O)N[C@@H](Cc2ccc(-c3ccc(C(=O)O)cc3)cc2)C(=O)N[C@@H](Cc2c[nH]c3ccccc23)C(=O)N[C@@H](Cc2ccc(C(=O)O)cc2)C(=O)NCC(=O)N2C[C@H](N)C[C@H]2C(=O)N[C@@H]([C@@H](C)c2cccc3ccccc23)C(=O)N[C@@H](CC(=O)O)C(=O)N1C` [Example 31] (cyclo([Bip(4'-COOH)]W[Phe(4-COOH)]G[Pro(4R-NH2)][1Nal(3S-Me)]D[dNMeA]G[Bip(4'-COOH)]W[Dap][dA][hTyr])), 0.0208 nM; to `C[C@@H]1C(=O)NCC(=O)N[C@@H](Cc2ccc(-c3ccc(C(=O)O)cc3)cc2)C(=O)N[C@@H](Cc2c[nH]c3ccccc23)C(=O)NCC(=O)N[C@H](CCN)C(=O)N[C@@H](CCc2ccc(O)cc2)C(=O)N[C@@H](Cc2ccc(-c3ccc(C(=O)O)cc3)cc2)C(=O)N[C@@H](Cc2c[nH]c3ccccc23)C(=O)N[C@@H](Cc2ccc(C(=O)O)cc2)C(=O)NCC(=O)N2C[C@H](N)C[C@H]2C(=O)N[C@@H]([C@@H](C)c2cccc3ccccc23)C(=O)N[C@@H](CC(=O)O)C(=O)N1C` [Example 32] (cyclo([Bip(4'-COOH)]W[Phe(4-COOH)]G[Pro(4R-NH2)][1Nal(3S-Me)]D[dNMeA]G[Bip(4'-COOH)]WG[dDab][hTyr])), 0.033 nM.
Take `CC(C)C[C@@H]1NC(=O)[C@H](Cc2cccc3ccccc23)NC(=O)[C@H](Cc2ccc(-c3ccc(C(=O)O)cc3)cc2)NC(=O)CNC(=O)[C@@H](C)N(C)C(=O)[C@H](C)NC(=O)[C@H]([C@@H](C)c2c[nH]c3cccc(Cl)c23)NC(=O)[C@@H]2C[C@@H](N)CN2C(=O)CNC(=O)[C@H](Cc2ccc(C(=O)O)cc2)NC(=O)[C@H](Cc2c[nH]c3ccccc23)NC(=O)[C@H](Cc2ccc(-c3ccc(C(=O)O)cc3)cc2)NC(=O)CNC(=O)C(C)(C)NC1=O` [Example 33] (cyclo([Bip(4'-COOH)]W[Phe(4-COOH)]G[Pro(4R-NH2)][Trp(4-Cl)(βS-Me)]A[dNMeA]G[Bip(4'-COOH)][1Nal]L[Aib]G)): the concentration for half-maximal inhibition (IC50) stood at 0.544 nM.
Regarding `C[C@@H]1C(=O)NCC(=O)N[C@@H](Cc2ccc(-c3ccc(C(=O)O)cc3)cc2)C(=O)N[C@@H](Cc2cccc3ccccc23)C(=O)N[C@@H](CN)C(=O)NC(C)(C)C(=O)N[C@@H](CCc2cncc(C#N)c2)C(=O)N[C@@H](Cc2ccc(-c3ccc(C(=O)O)cc3)cc2)C(=O)N[C@@H](Cc2c[nH]c3ccccc23)C(=O)N[C@@H](Cc2ccc(C(=O)O)cc2)C(=O)NCC(=O)N2C[C@H](N)C[C@H]2C(=O)N[C@@H]([C@@H](C)c2c[nH]c3cccc(Cl)c23)C(=O)N[C@@H](CC(=O)O)C(=O)N1C` [Example 34] (cyclo([Bip(4'-COOH)]W[Phe(4-COOH)]G[Pro(4R-NH2)][Trp(4-Cl)(βS-Me)]D[dNMeA]G[Bip(4'-COOH)][1Nal][Dap][Aib][h3Pal(5-CN)])), the IC50 worked out at 0.0755 nM.
To `CC(C)C[C@@H]1NC(=O)[C@H](Cc2cccc3ccccc23)NC(=O)[C@H](Cc2ccc(-c3ccc(C(=O)O)cc3)cc2)NC(=O)CNC(=O)[C@@H](C)N(C)C(=O)[C@H](CC(=O)O)NC(=O)[C@H]([C@@H](C)c2c[nH]c3cccc(Cl)c23)NC(=O)[C@@H]2C[C@@H](N)CN2C(=O)CNC(=O)[C@H](Cc2ccc(C(=O)O)cc2)NC(=O)[C@H](Cc2c[nH]c3ccccc23)NC(=O)[C@H](Cc2ccc(-c3ccc(C(=O)O)cc3)cc2)NC(=O)CNC(=O)C(C)(C)NC1=O` [Example 35] (cyclo([Bip(4'-COOH)]W[Phe(4-COOH)]G[Pro(4R-NH2)][Trp(4-Cl)(βS-Me)]D[dNMeA]G[Bip(4'-COOH)][1Nal]L[Aib]G)) belongs 0.16 nM; to `CC(C)C[C@@H]1NC(=O)[C@H](Cc2cccc3ccccc23)NC(=O)[C@H](Cc2ccc(-c3ccc(C(=O)O)cc3)cc2)NC(=O)CNC(=O)[C@@H](C)N(C)C(=O)[C@H](CC(=O)O)NC(=O)[C@H]([C@@H](C)c2c[nH]c3cccc(Cl)c23)NC(=O)[C@@H]2C[C@@H](N)CN2C(=O)CNC(=O)[C@H](Cc2ccc(C(=O)O)cc2)NC(=O)[C@H](Cc2c[nH]c3ccccc23)NC(=O)[C@H](Cc2ccc(-c3ccc(C(=O)O)cc3)cc2)NC(=O)[C@H](CCc2ccc(O)cc2)NC(=O)C(C)(C)NC1=O` [Example 36] (cyclo([Bip(4'-COOH)]W[Phe(4-COOH)]G[Pro(4R-NH2)][Trp(4-Cl)(βS-Me)]D[dNMeA]G[Bip(4'-COOH)][1Nal]L[Aib][hTyr])), 0.0522 nM; to `C[C@@H]1C(=O)NCC(=O)N[C@@H](Cc2ccc(-c3ccc(C(=O)O)cc3)cc2)C(=O)N[C@@H](Cc2cccc3ccccc23)C(=O)N[C@@H](CCCN)C(=O)NC(C)(C)C(=O)NCC(=O)N[C@@H](Cc2ccc(-c3ccc(C(=O)O)cc3)cc2)C(=O)N[C@@H](Cc2c[nH]c3ccccc23)C(=O)N[C@@H](Cc2ccc(C(=O)O)cc2)C(=O)NCC(=O)N2C[C@H](N)C[C@H]2C(=O)N[C@@H]([C@@H](C)c2c[nH]c3cccc(Cl)c23)C(=O)N[C@@H](CC(=O)O)C(=O)N1C` [Example 37] (cyclo([Bip(4'-COOH)]W[Phe(4-COOH)]G[Pro(4R-NH2)][Trp(4-Cl)(βS-Me)]D[dNMeA]G[Bip(4'-COOH)][1Nal][Orn][Aib]G)), 0.103 nM.
To `C[C@@H]1C(=O)NCC(=O)N[C@@H](Cc2ccc(-c3ccc(C(=O)O)cc3)cc2)C(=O)N[C@@H](Cc2cccnc2)C(=O)N[C@@H](CO)C(=O)N[C@H](C)C(=O)N[C@@H](CCc2ccc(O)cc2)C(=O)N[C@@H](Cc2ccc(-c3ccc(C(=O)O)cc3)cc2)C(=O)N[C@@H](Cc2c[nH]c3ccccc23)C(=O)N[C@@H](Cc2ccc(C(=O)O)cc2)C(=O)NCC(=O)N2C[C@H](N)C[C@H]2C(=O)N[C@@H]([C@@H](C)c2c[nH]c3cccc(Cl)c23)C(=O)N[C@@H](CC(=O)O)C(=O)N1C` [Example 38] (cyclo([Bip(4'-COOH)]W[Phe(4-COOH)]G[Pro(4R-NH2)][Trp(4-Cl)(βS-Me)]D[dNMeA]G[Bip(4'-COOH)][3Pal]S[dA][hTyr])) belongs 0.217 nM.
To `C[C@@H]1C(=O)NCC(=O)N[C@@H](Cc2ccc(-c3ccc(C(=O)O)cc3)cc2)C(=O)N[C@@H](Cc2ccncc2)C(=O)N[C@@H](CO)C(=O)N[C@H](C)C(=O)N[C@@H](CCc2ccc(O)cc2)C(=O)N[C@@H](Cc2ccc(-c3ccc(C(=O)O)cc3)cc2)C(=O)N[C@@H](Cc2c[nH]c3ccccc23)C(=O)N[C@@H](Cc2ccc(C(=O)O)cc2)C(=O)NCC(=O)N2C[C@H](N)C[C@H]2C(=O)N[C@@H]([C@@H](C)c2c[nH]c3cccc(Cl)c23)C(=O)N[C@@H](CC(=O)O)C(=O)N1C` [Example 39] (cyclo([Bip(4'-COOH)]W[Phe(4-COOH)]G[Pro(4R-NH2)][Trp(4-Cl)(βS-Me)]D[dNMeA]G[Bip(4'-COOH)][4Pal]S[dA][hTyr])) belongs 0.232 nM.
